Assay results taken from PubChem BioAssay AID1845206 (Molecular Pharmacology Branch, DTP, NCI, 2023).

System: NCI-H1618 multicellular tumor spheroid viability
Assay: Anticancer human tumor NCI-H1618 cell line growth inhibition;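 also: spheroids exposed to agents for 7 days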
Conditions: for IC50: curve of first compound; for viability, T/C: stronger effect = lower value
Excerpt: Multicellular complex tumor spheroid response to DNA repair inhibitors in combination with DNA-damaging drugs
This study explores the anticancer activities of DNA-damaging drugs and inhibitors of DNA damage repair, both as single agents and in combinations. Complex tumor spheroids comprised of malignant cells, endothelial cells and mesenchymal stem cells served as an in vitro model for human solid tumors. This model system incorporates physiologically relevant features and patient-derived or established malignant cell lines with clinically relevant genetic alterations from many tumor types. Twenty-six patient-derived or established malignant cell lines were evaluated representing sarcoma, melanoma, small cell lung cancer (SCLC), non-small cell lung cancer (NSCLC), as well as bladder, ovarian and pancreatic cancers. The concentration ranges selected for each drug and investigational agent were based upon clinically achievable concentrations if the clinical Cmax of the agent was known.
Compounds. The drugs and compounds olaparib (NSC753686), talazoparib (NSC767125), berzosertib (NSC777718), elimusertib (NSC800525), nedisertib (NSC802822), VX-984 (NSC792969), AZD-1390 (NSC803789), temozolomide (NSC362856), topotecan (NSC609699), trabectedin (NSC813783), staurosporine (NSC755774), and gemcitabine (NSC613327) were obtained from the National Cancer Institute (NCI) Developmental Therapeutics Program Chemical Repository. The FDA-approved anticancer drug set is available from the Developmental Therapeutics Program at https://dtp.cancer.gov/organization/dscb/obtaining/available_plates.htm. […] The stock solutions were prepared in dimethyl sulfoxide (DMSO, Sigma-Aldrich, St. Louis, MO, cat. D2650) at 400-fold the tested concentration and stored at -70 degrees C. Prior to their use, the stock solutions were diluted in fresh medium and the final DMSO concentration in the assay was 0.25% (v/v). All drugs and investigational agents were tested over a range starting from a high concentration at or near the clinical Cmax and decreasing in half-log increments. If the clinical Cmax for an agent had not been determined, the highest concentration tested was 10 microM.
Cell Lines. The patient-derived cancer cell (PDC) lines: 156681-154-R-J1-PDC, 283228-195-R-J1-PDC, 287954-098-R-J1-PDC, 292921-168-R-J2-PDC, 349418-098-R-PDC, 425362-245-T-J1-PDC, 556581-035-R-J1-PDC, and BL0293-F563-PDC were received from the NCI Patient-Derived Models Repository (PDMR, https://pdmr.cancer.gov). The established cell lines HS-SY-2 (RRID:CVCL_8719), MPNST, and SYO-1 (RRID:CVCL_7146) were obtained from the Sloan Kettering Institute. The alveolar soft parts sarcoma cell line ASPS-1 (RRID:CVCL_S738) was established at the NCI and grown from internal seed stocks. The following established cell lines were purchased from the American Type Culture Collection (ATCC, Manassas, VA): G-401 (ATCC, cat. CRL-1441, RRID:CVCL_0270), SW982 (ATCC, cat. HTB-93, RRID:CVCL_1734), VA-ES-BJ (ATCC, cat. CRL-2138, RRID:CVCL_1785), NCI-H719 (ATCC, cat. CRL-5837, RRID:CVCL_1582), NCI-H196 (ATCC, cat. CRL-5823, RRID:CVCL_1509), NCI-H841 (ATCC, cat. CRL-5845, RRID:CVCL_1595), NCI-H1618 (ATCC, cat. CRL-5879, RRID:CVCL_1480), NCI-H1876 (ATCC, cat. CRL-5902, RRID:CVCL_1503), DMS 114 (ATCC, cat. CRL-2066; RRID:CVCL_1174), NCI-H211 (ATCC, cat. CRL-5824; RRID:CVCL_1529), and SW 1271 (ATCC, cat. CRL-2177, RRID:CVCL_1716). The small cell lung cancer cell line COR-L88 was purchased from Sigma-Aldrich (cat. 92031917-1VL, RRID:CVCL_1141). The non-small cell lung cancer cell lines NCI-H226 (RRID:CVCL_1544) and NCI-H322M (RRID:CVCL_1557) were established at the NCI and grown from internal seed stocks. Pooled donor human umbilical vein endothelial cells (HUVEC, Lonza, cat. CC-2519) and human mesenchymal stem cells (hMSC, Lonza, cat. PT-2501) were purchased from Lonza (Walkersville, MD).
Cell Culture. All cells were maintained in an incubator at 37 degrees C and 5% CO2 with 95% humidity. […]

[1] = second compound 0.003 µM, first compound 0.00949 µM
[2] = second compound 0.003 µM, first compound 0.03 µM
[3] = second compound 0.003 µM, first compound 0.0949 µM
[4] = second compound 0.003 µM, first compound 0.3 µM
[5] = second compound 0.003 µM, first compound 0.949 µM
[6] = second compound 0.003 µM, first compound 3 µM
[7] = second compound 0.00949 µM, first compound 0.00949 µM
[8] = second compound 0.00949 µM, first compound 0.03 µM
[9] = second compound 0.00949 µM, first compound 0.0949 µM
[10] = second compound 0.00949 µM, first compound 0.3 µM
[11] = second compound 0.00949 µM, first compound 0.949 µM
[12] = second compound 0.00949 µM, first compound 3 µM
[13] = second compound 0.03 µM, first compound 0.00949 µM
[14] = second compound 0.03 µM, first compound 0.03 µM
[15] = second compound 0.03 µM, first compound 0.0949 µM
[16] = second compound 0.03 µM, first compound 0.3 µM
[17] = second compound 0.03 µM, first compound 0.949 µM
[18] = second compound 0.03 µM, first compound 3 µM
[19] = second compound 0.0949 µM, first compound 0.00949 µM
[20] = second compound 0.0949 µM, first compound 0.03 µM
[21] = second compound 0.0949 µM, first compound 0.0949 µM
[22] = second compound 0.0949 µM, first compound 0.3 µM
[23] = second compound 0.0949 µM, first compound 0.949 µM
[24] = second compound 0.0949 µM, first compound 3 µM
[25] = second compound 0.3 µM, first compound 0.00949 µM
[26] = second compound 0.3 µM, first compound 0.03 µM
[27] = second compound 0.3 µM, first compound 0.0949 µM
[28] = second compound 0.3 µM, first compound 0.3 µM
[29] = second compound 0.3 µM, first compound 0.949 µM
[30] = second compound 0.3 µM, first compound 3 µM

Row | Compound | IC50 (second compound 0.003 µM) | IC50 (second compound 0.00949 µM) | IC50 (second compound 0.03 µM) | IC50 (second compound 0.0949 µM) | IC50 (second compound 0.3 µM) | viability, T/C [3] | viability, T/C [4] | viability, T/C [5] | viability, T/C [6] | viability, T/C [9] | viability, T/C [10] | viability, T/C [11] | viability, T/C [12] | viability, T/C [15] | viability, T/C [16] | viability, T/C [17] | viability, T/C [18] | viability, T/C [21] | viability, T/C [22] | viability, T/C [23] | further results
1 | CNCc1ccc(-c2cc(-c3nc(-c4ccc(S(=O)(=O)C(C)C)cc4)cnc3N)on2)cc1 + CC[C@@]1(O)C(=O)OCc2c1cc1n(c2=O)Cc2cc3c(CN(C)C)c(O)ccc3nc2-1 | 0.187 µM | < 0.00949 µM | < 0.00949 µM | < 0.00949 µM | < 0.00949 µM | 61.7% | 44.8% | 1.59% | 0.23% | 34.5% | 1.73% | 0.75% | 0.62% | 1.54% | 1.41% | 0.72% | 0.23% | 1.35% | 1.36% | 0.81% | viability, T/C [1]: 95.1%; viability, T/C [2]: 94%; viability, T/C [7]: 20.6%; viability, T/C [8]: 77.9%; viability, T/C [13]: 1.33%; viability, T/C [14]: 15.5%; viability, T/C [19]: 1.38%; viability, T/C [20]: 14%; viability, T/C [24]: 0.45%; viability, T/C [25]: 1.25%; viability, T/C [26]: 1.26%; viability, T/C [27]: 1.42%; viability, T/C [28]: 1.51%; viability, T/C [29]: 17.5%; viability, T/C [30]: 0.43%
2 | Cc1sc2c(c1C)C(c1ccc(Cl)cc1)=NC(CC(=O)Nc1ccc(O)cc1)c1nnc(C)n1-2 (stereo not given) + CC[C@@]1(O)C(=O)OCc2c1cc1n(c2=O)Cc2cc3c(CN(C)C)c(O)ccc3nc2-1 | 0.453 µM | 0.011 µM | < 0.00949 µM | < 0.00949 µM | < 0.00949 µM | 89.1% | 61.3% | 27.2% | 1.67% | 29.5% | 2.24% | 0.92% | 0.93% | 1.42% | 1.1% | 0.9% | 0.76% | 1.55% | 0.99% | 0.71% | viability, T/C [1]: 96.6%; viability, T/C [2]: 85.2%; viability, T/C [7]: 55.5%; viability, T/C [8]: 21.2%; viability, T/C [13]: 1.53%; viability, T/C [14]: 17%; viability, T/C [19]: 1.43%; viability, T/C [20]: 1.5%; viability, T/C [24]: 15.8%; viability, T/C [25]: 1.23%; viability, T/C [26]: 1.1%; viability, T/C [27]: 0.98%; viability, T/C [28]: 0.97%; viability, T/C [29]: 0.73%; viability, T/C [30]: 0.63%
3 | Cn1ncnc1[C@H]1c2n[nH]c(=O)c3cc(F)cc(c23)N[C@@H]1c1ccc(F)cc1 + CC[C@@]1(O)C(=O)OCc2c1cc1n(c2=O)Cc2cc3c(CN(C)C)c(O)ccc3nc2-1 | < 0.00949 µM | < 0.00949 µM | < 0.00949 µM | < 0.00949 µM | < 0.00949 µM | 1.47% | 1.41% | 1.48% | 2.21% | 1.8% | 1.98% | 3.83% | 1.52% | 1.38% | 1.56% | 1.83% | 1.87% | 1.43% | 1.39% | 1.38% | viability, T/C [1]: 27.3%; viability, T/C [2]: 6.33%; viability, T/C [7]: 1.59%; viability, T/C [8]: 2.38%; viability, T/C [13]: 1.39%; viability, T/C [14]: 3.65%; viability, T/C [19]: 1.47%; viability, T/C [20]: 1.59%; viability, T/C [24]: 1.57%; viability, T/C [25]: 1.23%; viability, T/C [26]: 1.22%; viability, T/C [27]: 1.27%; viability, T/C [28]: 1.22%; viability, T/C [29]: 1.24%; viability, T/C [30]: 1.3%
4 | O=C(c1cc(Cc2n[nH]c(=O)c3ccccc23)ccc1F)N1CCN(C(=O)C2CC2)CC1 + CC[C@@]1(O)C(=O)OCc2c1cc1n(c2=O)Cc2cc3c(CN(C)C)c(O)ccc3nc2-1 | 1.25 µM | < 0.0949 µM | < 0.0949 µM | < 0.0949 µM | < 0.0949 µM | 89% | 84% | 61.2% | 15% | 2.05% | 2.74% | 1.49% | 2.37% | 2.9% | 1.36% | 1.85% | 1.67% | 13.1% | 1.67% | 2.53% | viability, T/C (second compound 0.003 µM, first compound 9.49 µM): 3.53%; viability, T/C (second compound 0.003 µM, first compound 30 µM): 3.79%; viability, T/C (second compound 0.00949 µM, first compound 9.49 µM): 9.35%; viability, T/C (second compound 0.00949 µM, first compound 30 µM): 2.81%; viability, T/C (second compound 0.03 µM, first compound 9.49 µM): 2.73%; viability, T/C (second compound 0.03 µM, first compound 30 µM): 2.96%; viability, T/C [24]: 1.83%; viability, T/C (second compound 0.0949 µM, first compound 9.49 µM): 2.3%; viability, T/C (second compound 0.0949 µM, first compound 30 µM): 2.69%; viability, T/C [27]: 1.51%; viability, T/C [28]: 1.22%; viability, T/C [29]: 1.9%; viability, T/C [30]: 1.37%; viability, T/C (second compound 0.3 µM, first compound 9.49 µM): 1.77%; viability, T/C (second compound 0.3 µM, first compound 30 µM): 3.42%
